# Earlier results in patent publication US20150038526A1, “FLUORINE-CONTAINING 5-[2-(PYRID-3-YL)-ETHYL]-2,3,4-TETRAHYDRO-1H-PYRIDO[4,3-B]INDOLES AS AGENTS FOR REDUCING UNCONTROLLED PROTEIN AGGREGATION” (FEDERALNOE GOSUDARSTVENNOE BUDZHETNOE UCHREZHDENIE NAUKI …, priority 2011, published 2015).
# Test system: gamma-synuclein protein
# Conditions: tissues of the nervous system of model animals
smiles,measurement,value
Cc1ccc2c(c1)c1c(n2CCc2ccc(C)nc2)CCN(C)C1 [Dimebon],formation and/or elimination of amyloid-like inclusions formed by gamma-synuclein,modulates the molecular cellular processes of formation and/or elimination of pathological protein depositions
